Test results published in paper PMC6479915, “Novel Benzene-Based Carbamates for AChE/BChE Inhibition: Synthesis and Ligand/Structure-Oriented SAR Study” (International Journal of Molecular Sciences, 2019).

Target: T1, AChE from electric eel (Electrophorus electricus, UniProt O42275)
T1 construct: purchased Sigma, St. Louis, MO, USA
Experiment: biochemical
Conditions: mean ± SD, n = three experiments; 25 °C, PBS pH 7.4, substrate ATCh 40 μM

T1 sequence (O42275 24-633): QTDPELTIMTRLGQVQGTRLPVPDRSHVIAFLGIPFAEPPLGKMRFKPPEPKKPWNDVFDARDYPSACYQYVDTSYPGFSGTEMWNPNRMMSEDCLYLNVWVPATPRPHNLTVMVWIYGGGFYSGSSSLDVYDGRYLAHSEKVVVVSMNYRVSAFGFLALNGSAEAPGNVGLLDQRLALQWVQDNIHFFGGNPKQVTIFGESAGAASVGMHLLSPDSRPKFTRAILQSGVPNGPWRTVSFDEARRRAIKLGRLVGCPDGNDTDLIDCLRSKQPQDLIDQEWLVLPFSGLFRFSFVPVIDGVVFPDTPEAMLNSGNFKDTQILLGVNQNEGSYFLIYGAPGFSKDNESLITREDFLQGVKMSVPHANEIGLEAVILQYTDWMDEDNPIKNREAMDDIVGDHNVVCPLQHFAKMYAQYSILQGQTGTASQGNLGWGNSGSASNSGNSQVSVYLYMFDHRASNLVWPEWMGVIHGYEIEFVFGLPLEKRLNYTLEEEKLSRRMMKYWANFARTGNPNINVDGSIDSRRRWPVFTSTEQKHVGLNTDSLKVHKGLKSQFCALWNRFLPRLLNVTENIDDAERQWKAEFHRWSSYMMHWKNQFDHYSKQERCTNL

Compound | IC50
Cc1cccc(C(=O)C(C)N(C)C(=O)OCc2ccccc2)c1 (stereo not drawn) [Compound 27, Benzyl methyl(1-oxo-1-(m-tolyl)propan-2-yl)carbamate] | 83.3 ± 2.49 µM
CC(C(=O)c1cccc2ccccc12)N(C)C(=O)Oc1ccccc1 (stereo not drawn) [Compound 36] | 99.6 ± 5.88 µM
CCC(C(=O)c1ccccc1)N(CC)C(=O)Oc1ccccc1 (stereo not drawn) [Compound 13, Phenyl ethyl(1-oxo-1-phenylbutan-2-yl)carbamate] | 95.7 ± 5.37 µM

Target: T2, BChE from equine serum (Equus caballus, UniProt P81908)
T2 construct: BChE (from equine serum); purchased Sigma, St. Louis, MO, USA; host or cells: equine serum
T2 sequence (P81908 whole entry): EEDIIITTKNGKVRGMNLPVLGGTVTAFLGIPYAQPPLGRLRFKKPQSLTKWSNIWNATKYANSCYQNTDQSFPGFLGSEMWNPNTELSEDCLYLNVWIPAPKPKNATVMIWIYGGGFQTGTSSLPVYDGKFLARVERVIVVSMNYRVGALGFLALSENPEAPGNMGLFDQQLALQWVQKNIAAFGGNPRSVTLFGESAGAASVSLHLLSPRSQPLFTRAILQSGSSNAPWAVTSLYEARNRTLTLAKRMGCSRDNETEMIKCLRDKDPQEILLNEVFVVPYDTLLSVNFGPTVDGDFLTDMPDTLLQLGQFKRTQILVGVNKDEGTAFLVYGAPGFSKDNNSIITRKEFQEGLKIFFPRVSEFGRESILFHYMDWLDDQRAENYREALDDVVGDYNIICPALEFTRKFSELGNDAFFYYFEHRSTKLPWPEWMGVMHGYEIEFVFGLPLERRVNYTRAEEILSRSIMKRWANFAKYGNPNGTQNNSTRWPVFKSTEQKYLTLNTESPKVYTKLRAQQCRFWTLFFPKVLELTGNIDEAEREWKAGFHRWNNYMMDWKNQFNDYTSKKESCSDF
Experiment: In vitro BChE inhibition, modified Ellman's method
Type: biochemical
Conditions: not given

Compound | IC50
Cc1cccc(C(=O)C(C)N(C)C(=O)OCc2ccccc2)c1 (stereo not drawn) [Compound 27, Benzyl methyl(1-oxo-1-(m-tolyl)propan-2-yl)carbamate] | 12.5 ± 0.24 µM
CC(C(=O)c1cccc2ccccc12)N(C)C(=O)Oc1ccccc1 (stereo not drawn) [Compound 36] | 12.7 ± 0.19 µM
CCC(C(=O)c1ccccc1)N(CC)C(=O)Oc1ccccc1 (stereo not drawn) [Compound 13, Phenyl ethyl(1-oxo-1-phenylbutan-2-yl)carbamate] | 15.62 ± 0.06 µM

Same assay, conditions: higher value = higher selectivity to BChE

Compound | SI (index selectivity) = IC50 (AChE)/IC50 (BChE)
Cc1cccc(C(=O)C(C)N(C)C(=O)OCc2ccccc2)c1 (stereo not drawn) [Compound 27, Benzyl methyl(1-oxo-1-(m-tolyl)propan-2-yl)carbamate] | 6.67
CC(C(=O)c1cccc2ccccc12)N(C)C(=O)Oc1ccccc1 (stereo not drawn) [Compound 36] | 7.83
CCC(C(=O)c1ccccc1)N(CC)C(=O)Oc1ccccc1 (stereo not drawn) [Compound 13, Phenyl ethyl(1-oxo-1-phenylbutan-2-yl)carbamate] | 6.13
